Measured values reported in patent US20100331203A1, “AROMATASE EXPRESSION PREDICTS SURVIVAL IN WOMEN WITH NON-SMALL CELL LUNG CANCER” (THE REGENTS OF THE UNIVERSITY OF CALIFORNIA, priority 2007, published 2010).
Entries after “also recorded” stand apart in the source; their conditions may differ.

Key:
[1] = exemestane cohort compared to women maintained on tamoxifen; cited from earlier work
NSCLC cells = details: cited from earlier work
human NSCLC xenograph = details: in vivo; cited from earlier work
A549 lung tumor cells = assay: A549 non-small cell lung tumor xenografts in ovariectomized female athymic mice; assay type: in vivo; details: daily subcutaneous treatment, 5 animals per group, P<0.001
Excerpt: FIG. 1. Growth-promoting effects of estrogen and aromatase substrate on non-small cell lung tumor xenografts in vivo. A549 lung tumor cells which express endogenous aromatase were implanted as subcutaneous xenografts in ovariectomized female athymic mice. Mice were then divided into 3 groups (5 animals per group). ▪ Animals were given daily subcutaneous treatments of the aromatase substrate androstenedione as before (see, e.g. Weinberg et al., Cancer Res 2005; 65:11287-91). […] Animals were given daily subcutaneous treatments of estradiol in a biodegradable binder as described (see, e.g. Pietras et al., Oncogene 1995; 10:2435-46). ▴ Control animals were supplemented with subcutaneous injection of vehicle alone.
In this study we examined aromatase, a key enzyme in the estrogen synthesis pathway. We hypothesized that expression of aromatase in lung cancer cells could result in a focal increase in estrogen levels and serve to promote tumor development and/or progression. […] To further assess estrogen signaling in NSCLC in vivo, we implanted A549 lung tumor cells which express endogenous aromatase in ovariectomized female athymic mice.
The protocol used for implantation of human lung tumor xenografts in nude mice was described previously (see, e.g. Weinberg et al., Cancer Res 2005; 65:11287-91; Pietras et al., Oncogene 1995; 10:2435-46). […]

C=C1C[C@@H]2[C@H](CC[C@]3(C)C(=O)CC[C@@H]23)[C@@]2(C)C=CC(=O)C=C12 [exemestane]
Subsequent development of primary lung cancer [1]: reduction

C[C@]12CC[C@@H]3c4ccc(O)cc4C[C@@H](CCCCCCCCC[S+]([O-])CCCC(F)(F)C(F)(F)F)[C@H]3[C@@H]1CC[C@@H]2O (stereo partly shown) [Faslodex, fulvestrant]
Effect on 17β-estradiol-induced mitogenesis and gene transcription in NSCLC cells (NSCLC cells; ER antagonist): inhibited
Tumor formation in human NSCLC xenograph model (human NSCLC xenograph): inhibited

C[C@]12CC[C@@H]3c4ccc(O)cc4CC[C@H]3[C@@H]1CC[C@@H]2O [estradiol, 17β-estradiol]
Gene transcription in NSCLC cells (NSCLC cells; in vitro and in vivo models): stimulates
Mitogenic effect on NSCLC cells (NSCLC cells; in vitro and in vivo models): mitogenic
Growth of A549 tumors compared to control animals (A549 lung tumor cells): significantly increased

C[C@]12CCC(=O)C=C1CC[C@@H]1[C@@H]2CC[C@]2(C)C(=O)CC[C@@H]12 [androstenedione]
Growth of A549 tumors compared to control animals (A549 lung tumor cells): significantly increased; also recorded: significantly enhanced tumor growth
